Here are results for three compounds from patent publication US9839634B2 (priority 2012, dated 2017).

The test system of assay [1] is Staphylococcus aureus ATCC12600. Type of assay: cell-based. On the procedure:
Spontaneous resistance frequencies in Staphylococcus aureus were determined by plating defined numbers of cells of Staphylococcus aureus ATCC12600 (1×10^8-1×10^12 cfu/plate) on Mueller-Hinton agar containing rifampin, myxopyronin B, or both, and counting numbers of colonies after 14 h at 37° C. Experiments were performed using (a) rifampin at 1×, 2×, or 4× the minimum inhibitory concentration of rifampin administered individually; (b) myxopyronin B at lx, 2×, or 4× the minimum inhibitory concentration of myxopyronin B administered individually; or (c) both rifampin at 1×, 2×, or 4× the minimum inhibitory concentration of rifampin administered individually and myxopyronin B at 1×, 2×, or 4× the minimum inhibitory concentration of myxopyronin B administered individually. All experiments were performed four times, using four different starting cultures.

Assay [2] concerns Escherichia coli D21f2tolC. It counts as cell-based. As to conditions: 2xMIC; for resistance rate per generation: MSS-MLE. On the procedure: Spontaneous resistance frequencies in Escherichia coli were determined by plating defined numbers of cells of Escherichia coli D21f2tolC (1×10^8-1×10^12 cfu/plate) on LB agar containing rifampin, myxopyronin B, or both, and counting numbers of colonies after 24 h at 37° C. Experiments were performed using (a) rifampin at 2× the minimum inhibitory concentration of rifampin administered individually; (b) myxopyronin B at 2× the minimum inhibitory concentration of myxopyronin B administered individually; or (c) both rifampin at 2× the minimum inhibitory concentration of rifampin administered individually and myxopyronin B at 2× the minimum inhibitory concentration of myxopyronin B administered individually. All experiments were performed at least five times, using at least five different starting cultures. Resistance rates and 95% confidence intervals were calculated using the Ma-Sandri-Sarkar Maximum Likelihood Estimator (MSS-MLE; [Ma, W, Sandri, GvH., Sarkar, S. (1992. ) J. Appl. Probab. 29, 255-267; Sarkar, S., Ma, W., Sandri, GvH. (1992) Genetica 85, 173-179]) as implemented on the Fluctuation Analysis Calculator (FALCOR; http://www.keshaysingh.org/protocols/FALCOR.html; [Hall, B., Ma, C., Liang, P., Singh, K (2009) Bioinformatics 25, 1564-1565]). Sampling correction was performed as in [Stewart, F., Gordon, D., Levin, B. (1990) Genetics 124, 175-185; Jones, M. (1993) Mutat. Res. 292, 187-189].

Where two headings read alike, the source gives them in different places.

Take `CCc1c(Cl)c(O)c(Cl)c(O)c1C(=O)O[C@H]1[C@H](O)[C@H](OC)[C@H](OC/C2=C\C=C\C[C@H](O)/C(C)=C/[C@H](CC)[C@@H](O[C@@H]3OC(C)(C)[C@@H](OC(=O)C(C)C)[C@H](O)[C@@H]3O)/C(C)=C/C(C)=C/C[C@@H]([C@@H](C)O)OC2=O)O[C@@H]1C` [lipiarmycin A3]: the spontaneous resistance frequency in assay [1] (2xMIC) is reported as 3×10^−8.

As to `CCCC/C(C)=C/C=C(\C)C(=O)c1c(O)cc([C@H](C)CC/C=C/NC(=O)OC)oc1=O` [myxopyronin B], the spontaneous resistance frequency is given as 4 × 10^−8 in assay [1] (1xMIC); 7 × 10^−8 in assay [1] (2xMIC); 7 × 10^−8 in assay [1] (4xMIC); 6×10^−8 in assay [1] (mean of 1x, 2x, 4xMIC); 8×10^−10 in assay [2]. The “resistance rate per generation” value in assay [2] is recorded as 3×10^−10 per generation.

With `CO[C@H]1/C=C/O[C@@]2(C)Oc3c(C)c(O)c4c(O)c(c(/C=N/N5CCN(C)CC5)c(O)c4c3C2=O)NC(=O)/C(C)=C\C=C\[C@H](C)[C@H](O)[C@@H](C)[C@@H](O)[C@@H](C)[C@H](OC(C)=O)[C@@H]1C` [rifampin], the spontaneous resistance frequency is on record as 5 × 10^−8 in assay [1] (1xMIC); 6×10^−8 in assay [1] (2xMIC); 6 × 10^−8 in assay [1] (4xMIC); 6×10^−8 in assay [1] (mean of 1x, 2x, 4xMIC); 4×10^−9 in assay [2]. Besides, in assay [2], the “resistance rate per generation” value is listed as 1×10^−9 per generation.
